Results taken from article PMC9964718, “Diterpenoids from Euphorbia gedrosiaca as Potential Anti-Proliferative Agents against Breast Cancer Cells” (Metabolites, 2023).

Columns and labels:
[1] = test system: MDA-MB-231 (ATCCR HTB-26) breast cancer cells; assay: MTT viability assay, MDA-MB-231 breast cancer cells; format: cell-based; conditions: for IC50: Homo sapiens, MDA-MB-231, MTT, 24 h incubation, mean ± SD (n = 3), read-out: Cytotoxic activity IC50; for Cytotoxicity against MDA-MB-231 compared to MCF-7: comparison of MTT test results, MDA-MB-231 vs MCF-7
Protocol: (§1) MDA MB-231 and MCF-7 (ATCCR HTB-26 and ATCCR HTB-22) breast cancer cells, originated from Pasteur Institute (IPI, Tehran, I.R. Iran), were cultured in RPMI1640 with streptomycin, penicillin, and fetal bovine serum (FBS) (100 µg/mL, 100 units/mL, 10%) with criteria of 5% carbon dioxide, 37 °C, and 95% humidity for a few days. Mouse normal fibroblast cell line (NCTC clone 929 from the same institute) was cultured in DMEM+10% FBS+ 1% penicillin/streptomycin in the same conditions. After incubation, cells were seeded at 7 × 10^3 cells in each well of ninety-six well plates for 12 h. Then, the media were changed, and sample compounds in concentrations of 1, 10, and 100 µM were added. For L929 normal cell line, samples were added in the concentrations of 1, 10, 100, 250, and 500 µM. Placebo with the same amount of DMSO in each concentration used for compounds and Taxol in concentrations of 0.001, 0.01, 0.1, 1, and 10 µM were added as the negative and positive controls. After 24 h incubation time, the reduction agent (MTT, 5 mg/mL, 20 µL) was added to each well and incubated for 4 h to let the MTT be reduced into formazan derivative by the mitochondria of survived cells. The media was then changed with DMSO (200 µL) to solubilize the insoluble formazan crystals, and the absorbance was read by a Synergy ELISA reader (BioTek Instruments, Winooski, VT, USA) at 570 nm.

[2] = test system: MCF-7 (ATCCR HTB-22) breast cancer cells; assay: MTT viability assay, MCF-7 breast cancer cells; format: cell-based; conditions: for IC50: Homo sapiens, MCF7, MCF-7, MTT, 24 h incubation, mean ± SD (n = 3), read-out: Cytotoxic activity IC50; for Potency in MTT assay: MCF-7, 100 μM concentration, P values less than 0.0001
Protocol: as §1

[3] = test system: human lung (A549) tumor cells; set-up: method as in PMID 30200407; conditions: cited from earlier work
[4] = test system: human colon (Caco-2) tumor cells; set-up: method as in PMID 30200407; conditions: cited from earlier work
[5] = MTT viability assay, L929 normal fibroblast cell line; format: cell-based; conditions: L929 normal fibroblast cells (NCTC clone 929), L929 (normal) mouse fibroblast, 24 h incubation, mean ± SD (n = 3), read-out: Cytotoxic activity IC50
Protocol: as §1

[6] = set-up: method as in PMID 30707022; conditions: compound isolated from roots of Euphorbia prolifera; cited from earlier work

Compound	IC50 [1] [µM]	IC50 [2] [µM]	Potency in MTT assay [2]	Cytotoxicity against proliferation [3]	Cytotoxicity against proliferation [4]	IC50 at 24 h [5] [µM]	Lipid-lowering activities and TG inhibitory effects [6]	Cytotoxicity against MDA-MB-231 compared to MCF-7 [1]
CCC(=O)O[C@@H]1[C@@H]2[C@@H](OC(=O)C(C)CC)[C@@]3(COC(=O)c4cccnc4)[C@@H]([C@@H]4[C@H](C[C@H]3OC(C)=O)C4(C)C)[C@](C)(OC(C)=O)C(=O)[C@@]2(O)C[C@@H]1C (stereo partly drawn) [Compound 1, 3β-O-propanoyl-5α-O-methylbutanoyl-7α,13β-O-diacetyl-17α-O-nicotinoyl-14-oxopremyrsinane]	10.8 ± 2.1	22.2 ± 2.4	reasonably potent	moderate cytotoxicity	moderate cytotoxicity	528 ± 23.8	–	–
CCC(=O)O[C@@H]1[C@@H]2[C@@H](OC(=O)c3ccccc3)[C@@]3(COC(C)=O)[C@@H]([C@@H]4[C@H](C[C@H]3OC(C)=O)C4(C)C)[C@](C)(OC(C)=O)C(=O)[C@@]2(O)C[C@@H]1C [Compound 2, 3β-O-propanoyl-5α-O-benzoyl-7α,13β, 17α -O-triacetyl-14-oxopremyrsinane]	22.2 ± 4	27.8 ± 2.5	reasonably potent	–	–	553 ± 26.7	acceptable	–
CCC(=O)O[C@@H]1[C@@H]2[C@@H](OC(=O)C(C)C)[C@@]3(COC(C)=O)[C@@H]([C@@H]4[C@H](C[C@H]3OC(C)=O)C4(C)C)[C@](C)(OC(C)=O)C(=O)[C@@]2(O)C[C@@H]1C [Compound 3, 3β-O-propanoyl-5α-O-isobutanoyl-7α,13β, 17α -O-triacetyl-14-oxopremyrsinane]	24.5 ± 3.8	62.6 ± 4.9	–	moderate cytotoxicity	moderate cytotoxicity	433 ± 22.1	–	almost three times higher cytotoxicity
CCC(=O)O[C@@H]1[C@@H]2[C@@H](OC(=O)C(C)C)[C@@]3(COC(=O)c4cccnc4)[C@@H]([C@@H]4[C@H](C[C@H]3OC(C)=O)C4(C)C)[C@](C)(OC(C)=O)C(=O)[C@@]2(O)C[C@@H]1C [Compound 4, 3β-O-propanoyl-5α-O-isobutanoyl-7α,13β-O-diacetyl-17α-O-nicotinoyl-14-oxopremyrsinane]	27.3 ± 3.2	74.4 ± 5.2	–	moderate cytotoxicity	moderate cytotoxicity	716 ± 26.9	–	almost three times higher cytotoxicity
CCC(=O)OC1C2C(OC(C)=O)C34COC(C)(C(OC(=O)c5ccccc5)C2(OC(C)=O)CC1(C)OC(C)=O)C3C(C(C)(C)OC(C)=O)C=CC4OC(C)=O (centres unmarked) [Compound 5, 2,5,7,10,15-O-pentaacetyl-3-O-propanoyl-14-O-benzoyl-13,17-epoxy-8-myrsinene]	33.7 ± 4.6	126 ± 4.2	–	–	–	596 ± 23.5	–	–
